Tests used:
Type in all cases: in vivo
[1] = tested on: velvetleaf (Abutilon theophrasti); test: Postemergence herbicidal activity, velvetleaf; conditions: 2 lb/A
Procedure, shortened: (§1)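 Sown flats got a foliar or soil spray of compound in water-diluted acetone (carrier equivalent to 50 gallons/acre, rate in pounds per acre), given on the day of planting or, postemergence, once seedlings were two weeks old.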

[2] = tested on: yellow nutsedge (Cyperus esculentus); test: Postemergence herbicidal activity, yellow nutsedge; conditions: Cyperus, post-emergence, 336 h, 2 lb/A
Procedure, shortened: (§2)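 Step one: plant crop and weed seeds in soil flats. Step two: spray the acetone-dissolved, water-diluted compound (carrier 50 gal/A, dose in lb/A) immediately for preemergence, or after two weeks' growth for postemergence. Step three: about two weeks on, rate phytotoxicity as percent killed.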

[3] = tested on: morningglory (Ipomoca spp.); test: Postemergence herbicidal activity, morningglory; conditions: 2 lb/A
Procedure, shortened: as §2

marigold (Tagetes spp.) [4] = test: Postemergence herbicidal activity, marigold; conditions: 2 lb/A
Procedure, shortened: as §2

[5] = tested on: cocklebur (Xanthium pensylvanicum); test: Preemergence herbicidal activity, cocklebur; conditions: Xanthium strumarium, pre-emergence, 336 h, 2 lb/A
Procedure, shortened: as §2

[6] = tested on: velvetleaf (Abutilon theophrasti); test: Preemergence herbicidal activity, velvetleaf; conditions: Abutilon theophrasti, pre-emergence, 336 h; Pre, 2 lb/A
Procedure, shortened: as §2

foxtail (Setaria spp.) [7] = test: Preemergence herbicidal activity, foxtail; conditions: Setaria, pre-emergence, 336 h; Pre, 2 lb/A
Procedure, shortened: as §2

marigold (Tagetes spp.) [8] = test: Preemergence herbicidal activity, marigold; conditions: pre-emergence, 336 h, 2 lb/A
Procedure, shortened: as §2

[9] = tested on: cocklebur (Xanthium pensylvanicum); test: Postemergence herbicidal activity, cocklebur; conditions: 2 lb/A
Procedure, shortened: as §2

[10] = tested on: yellow nutsedge (Cyperus esculentus); test: Preemergence herbicidal activity, yellow nutsedge; conditions: Cyperus, pre-emergence, 336 h, 2 lb/A
Procedure, shortened: as §2

wild oats (Avena fatua) [11] = test: Preemergence herbicidal activity, wild oats; conditions: Pre, 2 lb/A
Procedure, shortened: as §2

[12] = tested on: downybrome (Bromus tectorum); test: Preemergence herbicidal activity, downybrome; conditions: Pre, 2 lb/A
Procedure, shortened: as §2

[13] = tested on: barnyardgrass (Echinochloa crusgalli); test: Postemergence herbicidal activity, barnyardgrass; conditions: Echinochloa crus-galli, post-emergence, 336 h; Post, 2 lb/A
Procedure, shortened: as §1

wild oats (Avena fatua) [14] = test: Postemergence herbicidal activity, wild oats; conditions: Post, 2 lb/A
Procedure, shortened: as §2

[15] = tested on: morningglory (Ipomoca spp.); test: Preemergence herbicidal activity, morningglory; conditions: 2 lb/A
Procedure, shortened: as §2

[16] = tested on: tomato (Lycopersicon esculentum); test: Preemergence herbicidal activity, tomato; conditions: Solanum lycopersicum, pre-emergence, 336 h; Pre, 2 lb/A
Procedure, shortened: as §2

[17] = tested on: tomato (Lycopersicon esculentum); test: Postemergence herbicidal activity, tomato; conditions: Post, 2 lb/A
Procedure, shortened: as §2

[18] = tested on: barnyardgrass (Echinochloa crusgalli); test: Preemergence herbicidal activity, barnyardgrass; conditions: Echinochloa crus-galli, pre-emergence, 336 h; Pre, 2 lb/A
Procedure, shortened: as §1

[19] = tested on: downybrome (Bromus tectorum); test: Postemergence herbicidal activity, downybrome; conditions: Post, 2 lb/A
Procedure, shortened: as §2

foxtail (Setaria spp.) [20] = test: Postemergence herbicidal activity, foxtail; conditions: Setaria, post-emergence, 336 h, Post, 2 lb/A
Procedure, shortened: as §2

SMILES | pest or weed control at 2241.7 g/ha [2] | pest or weed control at 2241.7 g/ha [5] | pest or weed control at 2241.7 g/ha [6] | pest or weed control at 2241.7 g/ha (foxtail (Setaria spp.) [7]) | pest or weed control at 2241.7 g/ha (marigold (Tagetes spp.) [8]) | pest or weed control at 2241.7 g/ha [10] | pest or weed control at 2241.7 g/ha [13] | pest or weed control at 2241.7 g/ha [16] | pest or weed control at 2241.7 g/ha [18] | pest or weed control at 2241.7 g/ha (foxtail (Setaria spp.) [20]) | also measured
CC(Oc1ccc(Oc2ccc(C(F)(F)F)cc2Cl)cc1)C(=O)O (stereo not shown) [Example 6, 2-[4-(2-Chloro-4-trifluoromethylphenoxy)phenoxy] propionic acid] | 0% | 0% | 0% | 100% | 0% | 0% | 100% | 0% | 100% | 95% | % control, Velvetleaf ([1]; Post): 20%; % control, Morningglory ([3]; Post): 40%; % control, Marigold (marigold (Tagetes spp.) [4]; Post): 20%; % control, Cocklebur ([9]; Post): 50%; % control, Wild oat (wild oats (Avena fatua) [11]): 20%; % control, Downybrome [12]: 40%; % control, Wild oat (wild oats (Avena fatua) [14]): 95%; % control, Morningglory ([15]; Pre): 0%; % control, Tomato [17]: 80%; % control, Downybrome [19]: 30%
CCOC(=O)C(C)Oc1ccc(Oc2ccc(C(F)(F)F)cc2Cl)cc1[N+](=O)[O-] (stereo not shown) [Example 9] | 0% | 0% | 0% | 0% | 0% | 0% | 40% | 0% | 0% | 0% | pest or weed control at 2241.7 g/ha ([1]; Abutilon theophrasti, post-emergence, 336 h): 20%; pest or weed control at 2241.7 g/ha ([3]; Ipomoea, post-emergence, 336 h): 0%; pest or weed control at 2241.7 g/ha (marigold (Tagetes spp.) [4]; post-emergence, 336 h): 50%; pest or weed control at 2241.7 g/ha ([9]; Xanthium strumarium, post-emergence, 336 h): 40%; pest or weed control at 2241.7 g/ha (wild oats (Avena fatua) [11]; Avena fatua, pre-emergence, 336 h, read-out: % control, Wild oat): 0%; pest or weed control at 2241.7 g/ha ([12]; Bromus tectorum, pre-emergence, 336 h): 0%; pest or weed control at 2241.7 g/ha (wild oats (Avena fatua) [14]; Avena fatua, post-emergence, 336 h, read-out: % control, Wild oat): 0%; pest or weed control at 2241.7 g/ha ([15]; Ipomoea, pre-emergence, 336 h): 0%; pest or weed control at 2241.7 g/ha ([17]; Solanum lycopersicum, post-emergence, 336 h): 90%; pest or weed control at 2241.7 g/ha ([19]; Bromus tectorum, post-emergence, 336 h): 0%
